Source: ChEMBL document CHEMBL5257025, “Artemisinin-Derived Dimers: Potent Antimalarial and Anticancer Agents” (J Med Chem, 2016)

Legend:
DU-145 = assay: Antiproliferative activity against human DU-145 cells assessed as reduction in cell viability; assay type: functional, cell-based
PC-3 = assay: Antiproliferative activity against human PC-3 cells assessed as cell growth inhibition; assay type: functional, cell-based
CAKI-1 = assay: Antiproliferative activity against human CAKI-1 cells assessed as reduction in cell viability after 48 hrs by SRB assay; assay type: functional, cell-based; conditions: CAKI-1, 48 h
SK-OV-3 = assay: Antiproliferative activity against human SK-OV-3 cells assessed as reduction in cell viability incubated for 48 hrs by MTT assay; assay type: functional, cell-based; conditions: SK-OV-3, 48 h
K562 = assay: Antiproliferative activity against human K562 cells assessed as reduction in cell viability by MTT assay; assay type: functional, cell-based
MCF7 [1] = assay: Antiproliferative activity against human MCF7 cells assessed as reduction in cell viability measured after 48 hrs by SRB assay; assay type: functional, cell-based; conditions: MCF7, 48 h
M14 = assay: Antiproliferative activity against human M14 cells assessed as growth inhibition incubated for 72 hrs by luminescence assay; assay type: functional, cell-based; conditions: M14, 72 h
OVCAR-3 = assay: Antiproliferative activity against human OVCAR-3 cells assessed as reduction in cell viability; assay type: functional, cell-based
HL-60 = assay: Antiproliferative activity against human HL-60 cells assessed as reduction in cell viability incubated for 48 hrs by MTT assay; assay type: functional, cell-based; conditions: HL-60, 48 h
A498 = assay: Antiproliferative activity against human A498 cells assessed as reduction in cell viability; assay type: functional, cell-based
LOX IMVI = assay: Antiproliferative activity against human LOX IMVI cells assessed as cell growth inhibition; assay type: functional, cell-based
T47D = assay: Antiproliferative activity against human T47D cells assessed as inhibition of cell growth; assay type: functional, cell-based
C2G cell line = assay: Cytotoxicity against mouse C2G cells assessed as inhibition of cell growth measured after 72 hrs by MTT assay; assay type: functional, cell-based
TRAMP-C2H = assay: Cytotoxicity against mouse TRAMP-C2H cells assessed as inhibition of cell growth measured after 72 hs by MTT assay; assay type: functional, cell-based
Plasmodium falciparum [2] = assay: Antimalarial activity against Plasmodium falciparum NF54 assessed as reduction in cell growth; assay type: functional, organism-based
TRAMP-C1A = assay: Cytotoxicity against mouse TRAMP-C1A cells assessed as inhibition of cell growth measured after 72 hrs by MTT assay; assay type: functional, cell-based
C2D cell line = assay: Cytotoxicity against mouse C2D cell line assessed as inhibition of cell growth measured after 72 hrs by MTT assay; assay type: functional, cell-based
Plasmodium falciparum [3] = assay: Antimalarial activity against Plasmodium falciparum NF54 assessed as inhibition of cell growth incubated for 72 hrs by SYBR Green I staining based fluorescence analysis; assay type: functional, organism-based; conditions: NF54, 72 h
[4] = Cytotoxicity against rat MTLn3 cells assessed as cell growth inhibition; assay type: toxicity, cell-based
SK-MEL-2 = assay: Antiproliferative activity against human SK-MEL-2 cells assessed as reduction in cell viability incubated for 48 hrs by MTT assay; assay type: functional, cell-based; conditions: SK-MEL-2, 48 h
BeWo = assay: Antiproliferative activity against human BeWo cells assessed as reduction in cell viability after 72 hrs by MTT assay; assay type: functional, cell-based
HT-29 = assay: cells; conditions: Homo sapiens, HT-29, 72 h
P388 = assay: Antiproliferative activity against mouse P388 cells assessed as cell growth inhibition incubated for 72 hrs by MTT assay; assay type: functional, cell-based; conditions: P388, 72 h
[5] = Antiproliferative activity against human YD-10B cells assessed as cell growth inhibition measured after 72 hrs by MTT assay; assay type: functional, cell-based
SK-MEL = assay: Antiproliferative activity against human SK-MEL cells assessed as reduction in cell viability incubated for 48 hrs by MTT assay; assay type: functional, cell-based
XF498 = assay: Antiproliferative activity against human XF498 cells assessed as reduction in cell viability incubated for 48 hrs by MTT assay; assay type: functional, cell-based; conditions: XF498, 48 h
TK-10 = assay: Growth inhibition of human TK-10 cells assessed as cell growth inhibition measured after 48 hrs by MTT assay; assay type: functional
Plasmodium falciparum [6] = assay: Antimalarial activity against Plasmodium falciparum 3D7 assessed as inhibition of malarial growth; assay type: functional, organism-based
MCF7 [7] = assay: Growth inhibition of human MCF7 cells assessed as cell growth inhibition incubated for 48 hrs by MTT assay; assay type: functional
UACC-62 = assay: Growth inhibition of human UACC-62 cells assessed as cell growth inhibition measured after 48 hrs by MTT assay; assay type: functional

Work on C[C@@H]1CC[C@H]2[C@@H](C)C(OCC(COC3O[C@H]4O[C@@]5(C)CC[C@H]6[C@H](C)CC[C@@H]([C@H]3C)[C@@]46OO5)OC(=O)CCC(=O)O)O[C@H]3O[C@@]4(C)CC[C@@H]1[C@]32OO4 (stereo partly specified) yielded an IC50 (DU-145) of 20000 nM, an IC50 (PC-3) of 40 nM and an IC50 (CAKI-1) of 30000 nM. It also gave an IC50 (SK-OV-3) of 25000 nM, an IC50 (K562) of 200 nM and an IC50 (MCF7 [1]) of 200 nM. The IC50 (M14) was 30000 nM, the IC50 (OVCAR-3) was 250 nM and the IC50 (HL-60) was 60 nM. It also gave an IC50 (A498) of 20000 nM, an IC50 (LOX IMVI) of 80 nM and an IC50 (T47D) of 75 nM.
With C[C@@H]1CC[C@H]2[C@@H](C)C(CC(COC(=O)c3cc[n+]([O-])cc3)CC3O[C@H]4O[C@@]5(C)CC[C@H]6[C@H](C)CC[C@@H]([C@H]3C)[C@@]46OO5)O[C@H]3O[C@@]4(C)CC[C@@H]1[C@]32OO4 (stereo partly specified) the IC50 (C2G cell line) was 47.4 nM, the IC50 (TRAMP-C2H) was 36.1 nM and the IC50 (Plasmodium falciparum [2]) was 0.53 nM. The IC50 (TRAMP-C1A) was 84.6 nM and the IC50 (C2D cell line) was 62.1 nM.
Compound C[C@H]1[C@@H](CC(F)(F)c2ccc(C(F)(F)C[C@H]3O[C@H]4O[C@@]5(C)CC[C@H]6[C@H](C)CC[C@@H]([C@H]3C)[C@@]46OO5)cc2)O[C@H]2O[C@@]3(C)CC[C@H]4[C@H](C)CC[C@@H]1[C@@]24OO3 has an IC50 (Plasmodium falciparum [3]) of 28 nM.
Work on C[C@@H]1CC[C@H]2[C@@H](C)C(CC(CC3O[C@@H]4O[C@]5(C)CC[C@@H]6[C@@H](C)CC[C@H]([C@@H]3C)[C@]46OO5)C(=O)N/N=C/c3ccccc3O)O[C@H]3O[C@@]4(C)CC[C@@H]1[C@]32OO4 (stereo partly specified) yielded an IC50 [4] of 52 nM.
In the case of C[C@@H]1CC[C@H]2[C@@H](C)C(OCC(=O)COC3O[C@@H]4O[C@]5(C)CC[C@@H]6[C@@H](C)CC[C@H]([C@@H]3C)[C@]46OO5)O[C@H]3O[C@@]4(C)CC[C@@H]1[C@]32OO4 (stereo partly specified), the IC50 (SK-MEL-2) is reported as 560 nM.
With C[C@@H]1CC[C@H]2[C@@H](C)C(CCSCCC3O[C@@H]4O[C@]5(C)CC[C@@H]6[C@@H](C)CC[C@H]([C@@H]3C)[C@]46OO5)O[C@H]3O[C@@]4(C)CC[C@@H]1[C@]32OO4 (stereo partly specified) the IC50 (BeWo) was 22800 nM, the IC50 (MCF7 [1]) was 30 nM and the IC50 (HT-29) was 390 nM. For the same compound, the IC50 (P388) was 640 nM and the IC50 [5] was 9300 nM.
For C[C@H]1[C@H](CC(F)(F)c2ccc(C(F)(F)C[C@H]3O[C@H]4O[C@@]5(C)CC[C@H]6[C@H](C)CC[C@@H]([C@H]3C)[C@@]46OO5)cc2)O[C@H]2O[C@@]3(C)CC[C@H]4[C@H](C)CC[C@@H]1[C@@]24OO3, the IC50 (Plasmodium falciparum [3]) was 15 nM.
With Nc1ccn([C@@H]2O[C@H](CO)[C@@H](O)C2(F)F)c(=O)n1 [GEMCITABINE] the IC50 (C2G cell line) was 3.7 nM, the IC50 (TRAMP-C2H) was 3.7 nM and the IC50 (TRAMP-C1A) was 3.7 nM. For the same compound, the IC50 (C2D cell line) was 3.7 nM.
C[C@@H]1CC[C@H]2[C@@H](C)C(CCC(=O)NCCCN3CCN(CCCNC(=O)CCC4O[C@H]5O[C@]6(C)CC[C@H]7[C@H](C)CC[C@@H]([C@H]4C)[C@@]57OO6)CC3)O[C@H]3O[C@]4(C)CC[C@@H]1[C@]32OO4 (stereo partly specified) gave an IC50 (SK-MEL) of 450 nM and an IC50 (XF498) of 460 nM.
C[C@@H]1CC[C@H]2[C@@H](C)C(OCCC(CCCNc3ccnc4ccc(Cl)cc34)CCOC3O[C@@H]4O[C@]5(C)CC[C@@H]6[C@@H](C)CC[C@H]([C@@H]3C)[C@]46OO5)O[C@H]3O[C@@]4(C)CC[C@@H]1[C@]32OO4 (stereo partly specified) gave a GI50 (TK-10) of 80 nM, an IC50 (Plasmodium falciparum [6]) of 8.7 nM and a GI50 (MCF7 [7]) of 30 nM. The GI50 (UACC-62) was 50 nM.
